From article PMC9499324, “Glycyrrhizic Acid Derivatives Bearing Amino Acid Residues in the Carbohydrate Part as Dengue Virus E Protein Inhibitors: Synthesis and Antiviral Activity” (International Journal of Molecular Sciences, 2022) come the findings set out here.

For orientation: IC50 means the concentration at which inhibition is half-maximal. What is called inhibition is how much of the control response was suppressed.

Assay [1] deals with DENV1 and DENV2. Nature of the assay: DENV infectivity inhibition, summary over DENV1 and DENV2 in Vero E6 and A549 cells. Type of assay: cell-based, Dengue virus. The note with it: read-out: IC50 in DENV infectivity (range over assays). The text has this: (§1) […] In CPE and infectivity reduction assays, […], and then photographed by microscope for examining the levels of DENV2-induced CPE in infected cells treated with or without GL conjugate. Meanwhile, the cells were further performed using immunofluorescence assay (IFA) with anti-DENV NS4B antibodies (GeneTex, Inc., Hsinchu, Taiwan) and anti-rabbit IgG antibodies conjugated with AF555 (ThermoFisher, Waltham, MA, USA) plus DAPI (4′,6-diamidino-2-phenylindole) nuclear staining. Finally, the DENV-2 infectivity was measured according to the ratio of DENV NS4B-positive cells to DAPI-stained cells in the well of mock-treated or treated cells, as described in [45, 59, 60].

The subject of assay [2] is DENV2. Put plainly: Time-of-addition/compound removal assay with DENV2 in Vero E6 cells. Type of assay: cell-based, Dengue virus type 2. The note with it: for IC50: Dengue virus, Vero C1008, attachment mode, 4 °C, DENV2, Vero E6 cells; for Stage of DENV2 replication affected (attachment, entry, post-entry modes): time-of-addition/removal, Vero E6 cells. Here is the method:
Figure 5 Time-of-addition and removal assay for analyzing antiviral action of compounds 3 (A), 6 (B), 11 (C), and 21 (D) in Vero E6 cells. In the attachment mode, cells were pre-cooled and incubated with fresh-prepared mixtures of active compounds with DENV2 at 4 °C for 1 h. After the removal of the mixtures, the cells were kept at 37 °C for 96 h (a cycle of viral replication) and then were performed by immunofluorescent assay plus DAPI staining. In entry and post-entry modes, cells were infected with DENV2 and treated with the compounds simultaneously (the entry stage) or 1-h post-infection (post-entry stage). After a 1 h incubation period, the virus/compound mixture was removed; the cell monolayer was washed with PBS and cultured for 96 h and then subjected to immunofluorescence staining and DAPI. Finally, the inhibition percentage of DENV2 infectivity was calculated as follows: 1-(percentage of NS4B positivity in treated cells/percentage of NS4B positivity in mock-treated cells). *** p < 0.001 compared with the other two antiviral action modes.
The time-of-addition assays consisted of three modes including attachment treatment/removal, entry-treatment/removal, and post-entry treatment/removal modes. In the attachment-treatment/removal mode, Vero E6 cells monolayer in 6-well plate was placed at 4 °C for 2 h and incubated with the fresh-prepared mixture of DENV-2 (MOI = 0.005) with the active compound at indicated concentrations for 2 h at 4 °C, and then washed with phosphate-buffered saline (PBS). In the entry-treatment/removal mode, Vero E6 cells were simultaneously treated with the active compound and infected DENV-2 (MOI = 0.005) in 6-well plates, incubated for 1 h at 37 °C, and then washed with PBS. In the post-entry treatment/removal mode, the cells were infected with DENV-2 for 1 h at 37 °C, treated with the active compounds at indicated concentrations for 1 h at 37 °C, respectively, and then washed by PBS. After active compound removal (washout), the cells were incubated at 37 °C for 96 h, and then were analyzed by immunofluorescent and DAPI staining assay for determining the residual DENV-2 infectivity, as described above. The inhibitory activity of the transient treatment by active compounds on attachment, entry, and post-entry stages of DENV replication in vitro was determined based on the residual infectivity.

The subject of assay [3] is wild-type JEV SRIPs. Put plainly: Attachment assay with wild-type JEV SRIPs on Vero E6 cells. In kind it is cell-based, Japanese encephalitis virus. The note with it: 4 °C for 1 h. As to the method:
Figure 6 Attachment inhibition of chimeric DENV2 CprM-E/JEV and wild-type JEV SRIPs by active GL conjugates. Vero E6 cells were pre-cooled and incubated with freshly prepared mixtures of DENV2 CprM-E/JEV or wild-type JEV SRIPs, with active GL derivatives 3 (A), 6 (B), 11 (C), and 21 (D) at 4 °C for 1 h, respectively. After the removal of the mixtures, the cells were kept at 37 °C for 18 h and then an immunofluorescent assay with anti-JEV NS5 antibodies plus DAPI staining was performed. Finally, the inhibition percentage of SRIP attachment infectivity was measured as follows: 1-(percentage of JEV NS5 positivity in treated cells/percentage of JEV NS5 positivity in mock-treated cells). * p < 0.05; *** p < 0.001 compared with untreated, infected cells.
DNA-launched cytomegaloviruses (CMV) promoter-driven JEV and ZIKV replicons had been constructed, as described in our prior reports. […] After the removal of the mixture (the compound and SRIP), the cells were incubated at 37 °C for 18 h, and then were analyzed by immunofluorescent assay with anti-JEV NS3 and anti-ZIKV NS5 antibodies, respectively, plus DAPI staining for determining the residual infectivity of wild-type and chimeric SRIPs, as described above.

For assay [4], the system named is DENV2. Nature of the assay: DENV2 infectivity inhibition (anti-NS4B immunofluorescence) in Vero E6 cells. In kind it is cell-based, Dengue virus type 2. The note with it: Dengue virus; for inhibition at 10 µM: Vero C1008, 10 μM compound, DENV2, Vero E6 cells, 96 h, read-out: Inhibition (%) at 10 μM (reduction of NS4B-positive cells).
Description: as §1

Setting [5] is: Dengue virus, range over DENV1 and DENV2, Vero E6 and A549 cells.

Like-named read-outs stand apart in the source and are kept apart here.

Turning to `COC(=O)[C@H](NC(=O)[C@H]1O[C@@H](O[C@H]2[C@H](OC3CC[C@@]4(C)C(CC[C@]5(C)C4C(=O)C=C4C6C[C@@](C)(C(=O)O)CC[C@]6(C)CC[C@]45C)C3(C)C)O[C@H](C(=O)N[C@@H](C(=O)OC)C(C)C)[C@@H](O)[C@@H]2O)[C@H](O)[C@@H](O)[C@@H]1O)C(C)C` (stereo partly drawn) [Compound 3, 3-O-{2-O-[N-(β-D-Glucopyranosyluronoyl)-D-valinemethyl ester]-N-(β-D-glucopyranosyluronoyl)-D-valinemethyl ester}-(3β, 20β)-11-oxo-30-noroleane-12-ene-30-oic Acid], the IC50 in assay [1] (setting [5]) was 100 to 5980 nM; in assay [1], 120 to 2810 nM; in assay [2] it was 1860 nM. The “Stage of DENV2 replication affected (attachment, entry, post-entry modes)” value in assay [2] is reported as “mostly affected the virus binding stage to the cell surface in the attachment mode”. Moreover, the “Attachment of wild-type JEV SRIPs onto Vero E6 cells” value in assay [3] is “did not impede”. The inhibition at 10 µM in assay [4] was 90.7%.
Turning to `CCOC(=O)[C@H](Cc1ccccc1)NC(=O)[C@H]1O[C@@H](O[C@H]2[C@H](OC3CC[C@@]4(C)C(CC[C@]5(C)C4C(=O)C=C4C6C[C@@](C)(C(=O)O)CC[C@]6(C)CC[C@]45C)C3(C)C)O[C@H](C(=O)N[C@@H](Cc3ccccc3)C(=O)OCC)[C@@H](O)[C@@H]2O)[C@H](O)[C@@H](O)[C@@H]1O` (stereo partly drawn) [Compound 11, 3-O-{2-O-[N-(β-D-Glucopyranosyluronoyl)-L-phenylalanineethyl ester]-N-(β-D-Glucopyranosyluronoyl)-L-phenylalanineethyl ester}-(3β, 20β)-11-oxo-30-noroleane-12-ene-30-oic Acid], the IC50 was 100 to 5980 nM in assay [1] (setting [5]); 180 to 1560 nM in assay [1]; 180 nM in assay [2]; 0.17 to 0.5 µM in assay [4] (DENV2, Vero C1008, read-out: Inhibition of DENV2 Infectivity (IC50, μM), Vero E6 cells). For the same compound, the “Stage of DENV2 replication affected (attachment, entry, post-entry modes)” value in assay [2] is listed as “mostly affected the virus binding stage to the cell surface in the attachment mode”. Also, the “Attachment of wild-type JEV SRIPs onto Vero E6 cells” value in assay [3] is on record as “did not impede”. For the same compound, the inhibition at 10 µM in assay [4] was 91.3%.
